Measured values reported in patent US20200010482A1, “INHIBITORS OF BETA SECRETASE” (Janssen Pharmaceutica NV, priority 2017, published 2020).

Assays:
[1] = tested on: Abeta 1-42 produced and secreted by SKNBE2 cells expressing hAPP695; experiment: Cellular αLisa assay in SKNBE2 cells, Abeta 1-42; assay type: cell-based, human; details: SKNBE2 cells expressing hAPP695, 18 hours incubation; for IC50: Homo sapiens, SKNBE2, 18 h, read-out: CELLULAR αLISA ASSAY IN SKNBE2 CELLS ABETA 42 PIC50 (converted)
Procedure: In two αLisa assays the levels of Abeta total and Abeta 1-42 produced and secreted into the medium of human neuroblastoma SKNBE2 cells are quantified. The assay is based on the human neuroblastoma SKNBE2 expressing the wild type Amyloid Precursor Protein (hAPP695). The compounds are diluted and added to these cells, incubated for 18 hours and then measurements of Abeta 1-42 and Abeta total are taken. Abeta total and Abeta 1-42 are measured by sandwich αLisa. αLisa is a sandwich assay using biotinylated antibody AbN/25 attached to streptavidin coated beads and antibody Ab4G8 or cAb42/26 conjugated acceptor beads for the detection of Abeta total and Abeta 1-42 respectively. In the presence of Abeta total or Abeta 1-42, the beads come into close proximity. The excitation of the donor beads provokes the release of singlet oxygen molecules that trigger a cascade of energy transfer in the acceptor beads, resulting in light emission. Light emission is measured after 1 hour incubation (excitation at […] and emission at 615 nm).
A best-fit curve is fitted by a minimum sum of squares method to the plot of % Controlmin versus compound concentration. From this an IC50 value (inhibitory concentration causing 50% inhibition of activity) can be obtained. • LC=Median of the low control values=Low control: cells preincubated without compound, without biotinylated Ab in the αLisa • HC=Median of the High control values=High Control: cells preincubated without compound
(§1) % Effect=100−[(sample−LC)/(HC−LC)*100]
(§2) % Control=(sample/HC)*100
(§3) % Controlmin=(sample−LC)/(HC−LC)*100

[2] = molecular target: T1, BACE1 (Homo sapiens, UniProt P56817); experiment: BACE1 biochemical FRET based assay; details: recombinant BACE1 0.04 μg/ml, 20 μM substrate, 450 min, pH 5.0; for IC50: read-out: BIOCHEMICAL FRET BASED ASSAY pIC50 (converted)
T1 construct: recombinant BACE1 protein in a final concentration of 0.04 μg/ml
Source text: (§4) This assay is a Fluorescence Resonance Energy Transfer Assay (FRET) based assay. The substrate for this assay is an APP derived 13 amino acids peptide that contains the ‘Swedish’ Lys-Met/Asn-Leu mutation of the amyloid precursor protein (APP) beta-secretase cleavage site. This substrate also contains two fluorophores: (7-methoxycoumarin-4-yl) acetic acid (Mca) is a fluorescent donor with excitation wavelength at 320 nm and emission at 405 nm and 2,4-Dinitrophenyl (Dnp) is a proprietary quencher acceptor. […] Upon cleavage by BACE1, the fluorophore Mca is separated from the quenching group Dnp, restoring the full fluorescence yield of the donor. The increase in fluorescence is linearly related to the rate of proteolysis.
Briefly in a 384-well format recombinant BACE1 protein in a final concentration of 0.04 μg/ml is incubated for 450 minutes at room temperature with 20 μM substrate in incubation buffer (50 mM Citrate buffer pH 5.0, 0.05% PEG) in the presence of compound or DMSO. Next the amount of proteolysis is directly measured by fluorescence measurement (excitation at 320 nm and emission at 405 nm) at different incubation times (0, 30, 60, 90, 120 and 450 min). For every experiment a time curve (every 30 min between 0 min and 120 min) is used to determine the time where we find the lowest basal signal of the high control. The signal at this time (Tx) is used to subtract from the signal at 450 min. Results are expressed in RFU, as difference between T450 and Tx.
(§5) A best-fit curve is fitted by a minimum sum of squares method to the plot of % Controlmin versus compound concentration. From this an IC50 value (inhibitory concentration causing 50% inhibition of activity) can be obtained. • LC=Median of the low control values=Low control: Reaction without enzyme • HC=Median of the High control values=High Control: Reaction with enzyme
as §1, §2, §3

[3] = molecular target: T2, BACE2 (Homo sapiens, UniProt Q9Y5Z0); experiment: BACE2 biochemical FRET based assay; details: recombinant BACE2 0.4 μg/ml, 10 μM substrate, 450 min, pH 5.0; for IC50: read-out: BIOCHEMICAL FRET BASED ASSAY pIC50 (converted)
T2 construct: recombinant BACE2 protein in a final concentration of 0.4 μg/ml
T2 sequence (Q9Y5Z0 63-518): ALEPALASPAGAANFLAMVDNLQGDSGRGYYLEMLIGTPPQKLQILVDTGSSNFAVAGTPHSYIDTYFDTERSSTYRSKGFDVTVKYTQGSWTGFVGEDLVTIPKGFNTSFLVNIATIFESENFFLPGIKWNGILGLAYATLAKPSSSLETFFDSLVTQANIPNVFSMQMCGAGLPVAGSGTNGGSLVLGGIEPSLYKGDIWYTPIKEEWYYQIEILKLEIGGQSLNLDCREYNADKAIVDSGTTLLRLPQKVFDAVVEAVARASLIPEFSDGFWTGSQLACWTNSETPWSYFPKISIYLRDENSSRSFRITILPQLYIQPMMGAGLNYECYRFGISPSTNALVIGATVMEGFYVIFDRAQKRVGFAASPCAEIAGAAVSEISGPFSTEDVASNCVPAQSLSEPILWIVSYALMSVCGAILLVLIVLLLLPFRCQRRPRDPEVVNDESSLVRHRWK
Source text: as §4, with “assay” for “assay is an APP derived 13 amino acids peptide that”, “the beta-secretase,” for “BACE1,”
Briefly in a 384-well format recombinant BACE2 protein in a final concentration of 0.4 μg/ml is incubated for 450 minutes at room temperature with 10 μM substrate in incubation buffer (50 mM Citrate buffer pH 5.0, 0.05% PEG, no DMSO) in the absence or presence of compound. Next the amount of proteolysis is directly measured by fluorescence measurement at T=0 and T=450 (excitation at 320 nm and emission at 405 nm). Results are expressed in RFU (Relative Fluorescence Units), as difference between T450 and TO.
as §5, §1, §2, §3

T1 sequence (P56817 46-501): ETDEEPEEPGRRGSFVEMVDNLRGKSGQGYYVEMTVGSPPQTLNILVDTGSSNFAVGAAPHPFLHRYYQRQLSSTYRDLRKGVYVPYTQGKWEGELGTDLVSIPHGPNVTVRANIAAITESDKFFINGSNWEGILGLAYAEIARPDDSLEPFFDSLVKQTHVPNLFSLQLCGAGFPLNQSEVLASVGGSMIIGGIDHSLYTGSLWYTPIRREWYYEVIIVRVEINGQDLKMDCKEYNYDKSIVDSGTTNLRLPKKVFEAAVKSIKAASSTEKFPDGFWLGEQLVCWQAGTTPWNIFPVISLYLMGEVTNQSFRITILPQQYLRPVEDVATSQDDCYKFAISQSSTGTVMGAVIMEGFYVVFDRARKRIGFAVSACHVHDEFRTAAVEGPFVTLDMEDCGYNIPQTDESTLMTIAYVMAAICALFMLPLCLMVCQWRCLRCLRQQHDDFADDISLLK

IC50 [1] [nM]	IC50 [2] [nM]	IC50 [3] [nM]	BIOCHEMICAL FRET BASED ASSAY pIC50 [2]	BIOCHEMICAL FRET BASED ASSAY pIC50 [3]	Structure (SMILES)	CELLULAR αLISA ASSAY IN SKNBE2 CELLS ABETA 42 PIC50 [1]
70.8	145	155	–	–	COc1nccc2c1CC1(c3ccc(Cl)cc3F)N=C(N)SCC1C2 (racemic) [Compound 7]	–
20.9	132	219	–	–	COc1nccc2c1CC1(c3cc(C#N)ccc3F)N=C(N)SCC1C2 (racemic) [Compound 9]	–
> 8910	> 10000	> 10000	–	–	COc1nccc2c1C[C@@]1(c3cc(-c4cncnc4)ccc3F)N=C(N)SC[C@H]1C2 [Compound 185]	–
186	166	331	–	–	CCOc1nccc2c1CC1(c3ccc(F)cc3F)N=C(N)SCC1C2 (racemic) [Compound 4]	–
135	219	537	–	–	COc1nccc2c1CC1(c3cc([N+](=O)[O-])c(F)cc3F)N=C(N)SCC1C2 (racemic) [Compound 8]	–
–	–	–	8.64	8.44	COc1ncc(C2=CCOCC2)c2c1C[C@]1(c3ccc(F)cc3F)N=C(N)SC[C@@H]1C2 [Compound 46]	9.21
17	42.7	123	–	–	COc1nccc2c1C[C@]1(c3cc(-c4cncc(C#N)c4)ccc3F)N=C(N)SC[C@@H]1C2 [Compound 37]	–
155	27.5	29.5	–	–	COc1ncc(Br)c2c1C[C@]1(c3cc(O)ccc3F)N=C(N)SC[C@@H]1C2 [Compound 42]	–
13.8	209	2570	–	–	COc1ccncc1-c1cnc(OC)c2c1C[C@H]1CSC(N)=N[C@@]1(c1ccc(F)cc1F)C2 [Compound 103]	–
–	1070	501	–	–	COCC(=O)Nc1cc(C23Cc4c(ccnc4OC)CC2CSC(N)=N3)c(F)cc1F (single isomer, unassigned) [Compound 198]	6.58
42.7	25.1	479	–	–	COc1ncc(-c2cnccc2C)c2c1CC1(c3cc(O)ccc3F)N=C(N)SCC1C2 (racemic) [Compound 26]	–
6920	> 10000	> 10000	–	–	COc1ncc(Br)c2c1C[C@@]1(c3cc(O)ccc3F)N=C(N)SC[C@H]1C2 [Compound 189]	–
170	692	1150	–	–	COc1nccc2c1C[C@]1(c3ccc(F)cc3F)N=C(N)OC[C@@H]1C2 (racemic) [Compound 30]	–
200	234	219	–	–	COc1nccc2c1CC1(c3cc(Br)c(F)cc3F)N=C(N)SCC1C2 (racemic) [Compound 6]	–
1.32	7.76	–	–	–	COc1ncc(-c2cncc(C)c2)c2c1C[C@]1(c3ccc(F)cc3F)N=C(N)SC[C@@H]1C2 [Compound 108]	–
22.4	91.2	251	–	–	COc1nccc2c1CC1(c3cc(-c4cncc(C#N)c4)ccc3F)N=C(N)SCC1C2 (racemic) [Compound 12]	–
7.24	50.1	1120	–	–	COc1ncc(-c2ccncc2C)c2c1CC1(c3ccc(F)cc3F)N=C(N)OCC1C2 (racemic) [Compound 32]	–
3.89	11.7	3980	–	–	COc1ncc(-c2cnccc2C)c2c1C[C@]1(c3cc(-c4cncnc4)ccc3F)N=C(N)SC[C@@H]1C2 (racemic) [Compound 27]	–
2.95	21.9	219	–	–	COc1nccc2c1CC1(c3cc(-c4cncnc4)c(F)cc3F)N=C(N)SCC1C2 (racemic) [Compound 11]	–
8.91	69.2	178	–	–	COc1ncc(-c2cccnc2)c2c1C[C@]1(c3ccc(F)cc3F)N=C(N)OC[C@@H]1C2 (racemic) [Compound 31]	–
18.6	14.8	14.8	–	–	COc1nccc2c1C[C@]1(c3cc(OCC4CC4)ccc3F)N=C(N)SC[C@@H]1C2 [Compound 136]	–
8.51	35.5	457	–	–	COc1nccc2c1CC1(c3cc(-c4cncnc4)ccc3F)N=C(N)SCC1C2 (racemic) [Compound 10]	–
3.55	15.5	229	–	–	COc1nccc2c1C[C@]1(c3cc(-c4cncnc4)ccc3F)N=C(N)SC[C@@H]1C2 [Compound 38]	–
1.45	70.8	39.8	–	–	COCC(C)NCc1ccc(F)c(C23Cc4c(ccnc4OC)CC2CSC(N)=N3)c1 (racemic) [Compound 13]	–
5370	> 10000	> 10000	–	–	COc1nccc2c1C[C@@]1(c3cc(OCC4CC4)ccc3F)N=C(N)SC[C@H]1C2 [Compound 184]	–
17.4	30.2	115	–	–	COc1nccc2c1CC1(c3cc4c(cc3F)OCC(=O)N4)N=C(N)SCC1C2 (racemic) [Compound 15]	–
> 8910	> 10000	> 10000	–	–	COc1nccc2c1C[C@@]1(c3cc(-c4cncc(C#N)c4)ccc3F)N=C(N)SC[C@H]1C2 [Compound 186]	–
417	162	282	–	–	COc1ncc(Br)c2c1CC1(c3cc(Br)c(F)cc3F)N=C(N)SCC1C2 (racemic) [Compound 19]	–
–	16.2	7.08	–	–	COCC(=O)Nc1cc(C23Cc4c(ccnc4OC)CC2CSC(N)=N3)c(F)cc1F (single isomer, unassigned) [Compound 199]	8.36
